Here are results for 13 compounds from patent US20230416240A1, “KAT6 TARGETING COMPOUNDS” (Prelude Therapeutics Incorporated, priority 2022, published 2023).

In this test the target is T1, HiBit tagged KAT6A (Homo sapiens, UniProt Q92794).
T1 construct: host or cells: HeLa
The test is described as follows: HiBit KAT6A Degradation Assessment. It counts as cell-based. The conditions noted are these: HeLa cells with HiBit tagged KAT6A, 18 h of treatment, 9-point serial dilution. How it is done:
The degradation activity of compounds was evaluated by measuring levels of KAT6A protein using the HiBiT system. These studies were conducted in HeLa cells with a HiBit tagged KAT6A. Cells were maintained in a 37° C. incubator at 5% CO2 in EMEM (ATCC, 30-2003) supplemented with 10% v/v FBS (Gibco, 26140-079) and 1% penicillin streptomycin. Cells were seeded in 384-well plates at a density of 2,000 cells/well. Compounds dissolved in DMSO were added in 9-point serial dilution. After 18 h of treatment, KAT6A levels were measured using the Nano-Glo® HiBiT Lytic Detection System (Promega catalog number N3030) per manufacturer's instructions. Luminescence signal was measured with a multimode plate reader (Envision 2105, Perkin Elmer). Luminescence values were normalized to background and DMSO controls to quantify KAT6A for each condition. Results were analyzed, and DC50 and Dmax values obtained using a four-parameter logistic curve fit.

T1 sequence (Q92794 whole entry): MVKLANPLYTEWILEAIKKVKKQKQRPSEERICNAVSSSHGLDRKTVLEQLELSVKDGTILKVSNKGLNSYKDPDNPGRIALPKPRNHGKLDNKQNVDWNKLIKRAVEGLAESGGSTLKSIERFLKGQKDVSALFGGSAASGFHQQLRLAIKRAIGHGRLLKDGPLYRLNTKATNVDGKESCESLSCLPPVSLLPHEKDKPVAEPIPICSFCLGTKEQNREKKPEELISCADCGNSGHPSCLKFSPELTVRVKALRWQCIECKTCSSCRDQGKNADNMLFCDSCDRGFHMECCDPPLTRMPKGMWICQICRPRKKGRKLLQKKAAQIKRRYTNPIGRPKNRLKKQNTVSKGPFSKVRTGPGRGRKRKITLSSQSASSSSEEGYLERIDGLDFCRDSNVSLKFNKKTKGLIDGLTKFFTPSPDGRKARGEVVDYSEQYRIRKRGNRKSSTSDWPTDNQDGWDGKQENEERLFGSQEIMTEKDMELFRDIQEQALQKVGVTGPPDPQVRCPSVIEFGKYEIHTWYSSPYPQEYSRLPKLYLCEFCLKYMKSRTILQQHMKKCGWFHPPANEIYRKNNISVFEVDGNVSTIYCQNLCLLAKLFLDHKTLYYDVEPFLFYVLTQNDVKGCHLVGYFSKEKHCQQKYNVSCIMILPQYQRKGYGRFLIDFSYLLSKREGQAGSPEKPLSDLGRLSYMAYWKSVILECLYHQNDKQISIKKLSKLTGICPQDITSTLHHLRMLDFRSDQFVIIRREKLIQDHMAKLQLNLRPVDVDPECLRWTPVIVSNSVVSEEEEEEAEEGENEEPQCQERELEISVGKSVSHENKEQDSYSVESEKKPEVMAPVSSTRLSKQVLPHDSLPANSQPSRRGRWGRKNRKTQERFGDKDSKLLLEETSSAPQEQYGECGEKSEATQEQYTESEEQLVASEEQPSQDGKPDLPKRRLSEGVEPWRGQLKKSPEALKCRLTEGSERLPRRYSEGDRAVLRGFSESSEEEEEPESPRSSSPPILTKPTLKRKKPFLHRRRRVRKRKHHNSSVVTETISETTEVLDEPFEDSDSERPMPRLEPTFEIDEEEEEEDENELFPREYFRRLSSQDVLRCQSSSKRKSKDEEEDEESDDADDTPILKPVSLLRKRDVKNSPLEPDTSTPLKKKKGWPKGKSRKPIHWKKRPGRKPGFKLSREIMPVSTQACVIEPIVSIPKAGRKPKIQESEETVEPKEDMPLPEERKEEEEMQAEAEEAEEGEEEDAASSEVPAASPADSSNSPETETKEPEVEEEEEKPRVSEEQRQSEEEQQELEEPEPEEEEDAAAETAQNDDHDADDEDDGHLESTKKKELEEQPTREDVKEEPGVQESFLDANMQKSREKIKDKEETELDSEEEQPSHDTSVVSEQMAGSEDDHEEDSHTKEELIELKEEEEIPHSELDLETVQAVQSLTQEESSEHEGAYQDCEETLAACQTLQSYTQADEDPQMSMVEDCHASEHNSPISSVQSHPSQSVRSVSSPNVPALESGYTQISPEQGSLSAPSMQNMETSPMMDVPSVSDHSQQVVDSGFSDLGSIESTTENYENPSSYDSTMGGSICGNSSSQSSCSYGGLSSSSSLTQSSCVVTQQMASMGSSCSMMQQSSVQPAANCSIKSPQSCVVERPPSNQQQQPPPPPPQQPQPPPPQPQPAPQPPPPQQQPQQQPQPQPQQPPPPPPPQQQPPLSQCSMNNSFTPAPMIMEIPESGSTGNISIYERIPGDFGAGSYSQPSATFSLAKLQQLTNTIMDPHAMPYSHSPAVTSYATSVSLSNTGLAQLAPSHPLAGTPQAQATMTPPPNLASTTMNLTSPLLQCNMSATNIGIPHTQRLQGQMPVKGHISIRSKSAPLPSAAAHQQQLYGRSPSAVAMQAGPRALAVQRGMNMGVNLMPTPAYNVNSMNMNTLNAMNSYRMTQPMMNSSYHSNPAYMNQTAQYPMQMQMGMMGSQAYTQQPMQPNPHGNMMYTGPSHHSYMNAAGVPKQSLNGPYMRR

As usually defined, the DC50 is the midpoint of the concentration-degradation curve. By Dmax is commonly meant the greatest extent of degradation seen. A lower Dmax goes with shallow degradation. In turn, `COc1cc(Cn2cccn2)cc2onc(NS(=O)(=O)c3cccc(N(C)C4CCN(C[C@@H]5CCN(c6ccc7c(c6)CN([C@H]6CCC(=O)NC6=O)C7=O)C5)CC4)c3)c12` [Example 37, N-(6-((1H-Pyrazol-1-yl)methyl)-4-methoxybenzo[d]isoxazol-3-yl)-3-((1-(((S)-1-(2-((S)-2,6-dioxopiperidin-3-yl)-1-oxoisoindolin-5-yl)pyrrolidin-3-yl)methyl)piperidin-4-yl)(methyl)amino)benzenesulfonamide] displayed a DC50 of under 10 nM and a Dmax of 50 to 75%.

In turn, `COc1c(N2CC3(CCN(C[C@H]4CCN(c5ccc6c(c5)CN(C5CCC(=O)NC5=O)C6=O)C4)CC3)C2)cccc1S(=O)(=O)Nc1noc2cc(Cn3cccn3)cc(OC)c12` (stereo partly drawn) [Example 27, N-(6-((1H-Pyrazol-1-yl)methyl)-4-methoxybenzo[d]isoxazol-3-yl)-3-(7-(((3R)-1-(2-(2,6-dioxopiperidin-3-yl)-1-oxoisoindolin-5-yl)pyrrolidin-3-yl)methyl)-2,7-diazaspiro[3.5]nonan-2-yl)-2-methoxybenzenesulfonamide] registered a 50% degradation concentration (DC50) of under 10 nM and a Dmax of over 75%.

`COc1cc(Cn2cccn2)cc2onc(NS(=O)(=O)c3cccc(N4CCC(CN5CCC(Oc6ccc7c(c6)C(=O)N(C6CCC(=O)NC6=O)C7=O)CC5)C4)c3)c12` (centres unmarked) [Example 23, N-(6-((1H-Pyrazol-1-yl)methyl)-4-methoxybenzo[d]isoxazol-3-yl)-3-(3-((4-((2-(2,6-dioxopiperidin-3-yl)-1,3-dioxoisoindolin-5-yl)oxy)piperidin-1-yl)methyl)pyrrolidin-1-yl)benzenesulfonamide]: the Dmax is 25 to 50%.

For the compound `COc1cc(Cn2cccn2)cc2onc(NS(=O)(=O)c3cccc(N4CCC5(CC4)CN(C[C@@H]4CCN(c6ccc7c(c6)C(=O)N(C6CCC(=O)NC6=O)C7=O)C4)C5)c3)c12` (stereo partly drawn) [Example 14, N-(6-((1H-Pyrazol-1-yl)methyl)-4-methoxybenzo[d]isoxazol-3-yl)-3-(2-(((3S)-1-(2-(2,6-dioxopiperidin-3-yl)-1,3-dioxoisoindolin-5-yl)pyrrolidin-3-yl)methyl)-2,7-diazaspiro[3.5]nonan-7-yl)benzenesulfonamide], the DC50 is under 10 nM and the greatest degradation seen (Dmax) lay within 50 to 75%.

Take `COc1cc(Cn2cccn2)cc2onc(NS(=O)(=O)c3cccc(N4CCN(CC5CCN(c6cccc7c6C(=O)N(C6CCC(=O)NC6=O)C7=O)CC5)CC4)c3)c12` (centres unmarked) [Example 32, 3-[4-[[1-[2-(2,6-Dioxopiperidin-3-yl)-1,3-dioxoisoindol-4-yl]piperidin-4-yl]methyl]piperazin-1-yl]-N-[4-methoxy-6-(pyrazol-1-ylmethyl)-1,2-benzoxazol-3-yl]benzenesulfonamide]: the DC50 was 10 to 100 nM and the Dmax is 50 to 75%.

For `COc1cc(Cn2cccn2)cc2onc(NS(=O)(=O)c3cccc(N4CCC5(CCN(CC6CCN(c7ccc8c(c7)C(=O)N(C7CCC(=O)NC7=O)C8=O)C6)CC5)CC4)c3)c12` (centres unmarked) [Example 20, N-(6-((1H-Pyrazol-1-yl)methyl)-4-methoxybenzo[d]isoxazol-3-yl)-3-(9-((1-(2-(2,6-dioxopiperidin-3-yl)-1,3-dioxoisoindolin-5-yl)pyrrolidin-3-yl)methyl)-3,9-diazaspiro[5.5]undecan-3-yl)benzenesulfonamide], the DC50 was under 10 nM and the Dmax was over 75%.

As for `COc1cc(Cn2cccn2)cc2onc(NS(=O)(=O)c3cccc(N4CCC(NC[C@@H]5CCN(c6ccc7c(c6)CN([C@H]6CCC(=O)NC6=O)C7=O)C5)CC4)c3)c12` [Example 36, N-(6-((1H-pyrazol-1-yl)methyl)-4-methoxybenzo[d]isoxazol-3-yl)-3-(4-((((S)-1-(2-((S)-2,6-dioxopiperidin-3-yl)-1-oxoisoindolin-5-yl)pyrrolidin-3-yl)methyl)amino)piperidin-1-yl)benzenesulfonamide], the DC50 lay within 10 to 100 nM and the Dmax was over 75%.

For the compound `COc1cc(Cn2cccn2)cc2onc(NS(=O)(=O)c3cccc(N4CC5(CCN(C[C@@H]6CCN(c7ccc8c(c7)CN([C@H]7CCC(=O)NC7=O)C8=O)C6)CC5)C4)c3)c12` [Example 28, N-(6-((1H-Pyrazol-1-yl)methyl)-4-methoxybenzo[d]isoxazol-3-yl)-3-(7-(((S)-1-(2-((S)-2,6-dioxopiperidin-3-yl)-1-oxoisoindolin-5-yl)pyrrolidin-3-yl)methyl)-2,7-diazaspiro[3.5]nonan-2-yl)benzenesulfonamide], the half-maximal degradation concentration (DC50) was under 10 nM and the Dmax is over 75%.

On to `COc1cc(Cn2cccn2)cc2onc(NS(=O)(=O)c3cccc(N4CCN(C(=O)C5CCN(c6ccc7c(c6)C(=O)N(C6CCC(=O)NC6=O)C7=O)C5)CC4)c3)c12` (centres unmarked) [Example 24, N-(6-((1H-pyrazol-1-yl)methyl)-4-methoxybenzo[d]isoxazol-3-yl)-3-(4-(1-(2-(2,6-dioxopiperidin-3-yl)-1,3-dioxoisoindolin-5-yl)pyrrolidine-3-carbonyl)piperazin-1-yl)benzenesulfonamide], for which the maximal degradation (Dmax) is at most 25%.

Regarding `COc1cc(Cn2cccn2)cc2onc(NS(=O)(=O)c3cccc(N4CCN(CC5CCN(c6ccc(C(=O)NC7CCC(=O)NC7=O)nc6)CC5)CC4)c3)c12` (centres unmarked) [Example 29, 5-(4-((4-(3-(N-(6-((1H-Pyrazol-1-yl)methyl)-4-methoxybenzo[d]isoxazol-3-yl)sulfamoyl)phenyl)piperazin-1-yl)methyl)piperidin-1-yl)-N-(2,6-dioxopiperidin-3-yl) picolinamide], the Dmax lay within 25 to 50%.

Consider `COc1c(N2CC3(CCN(C[C@@H]4CCN(c5ccc6c(c5)CN(C5CCC(=O)NC5=O)C6=O)C4)CC3)C2)cccc1S(=O)(=O)Nc1noc2cc(Cn3cccn3)cc(OC)c12` (stereo partly drawn) [Example 26, N-(6-((1H-Pyrazol-1-yl)methyl)-4-methoxybenzo[d]isoxazol-3-yl)-3-(7-(((3S)-1-(2-(2,6-dioxopiperidin-3-yl)-1-oxoisoindolin-5-yl)pyrrolidin-3-yl)methyl)-2,7-diazaspirononan-2-yl)-2-methoxybenzenesulfonamide], for which the DC50 was under 10 nM and the Dmax was over 75%.

The compound `COc1cc(Cn2cccn2)cc2onc(NS(=O)(=O)c3cccc(N4CC5(CCN(C[C@@H]6CCN(c7ccc8c(c7)C(=O)N(C7CCC(=O)NC7=O)C8=O)C6)CC5)C4)c3)c12` (stereo partly drawn) [Example 16, N-(6-((1H-Pyrazol-1-yl)methyl)-4-methoxybenzo[d]isoxazol-3-yl)-3-(7-(((3S)-1-(2-(2,6-dioxopiperidin-3-yl)-1,3-dioxoisoindolin-5-yl)pyrrolidin-3-yl)methyl)-2,7-diazaspiro[3.5]nonan-2-yl)benzenesulfonamide] showed a DC50 of under 10 nM and a Dmax of over 75%.

In the case of `COc1cc(Cn2cccn2)cc2onc(NS(=O)(=O)c3cccc(N4CC5(CCN(CC6CCN(c7ccc8c(c7)CN(C7CCC(=O)NC7=O)C8=O)C6)CC5)C4)c3)c12` (centres unmarked) [Example 33, N-(6-((1H-pyrazol-1-yl)methyl)-4-methoxybenzo[d]isoxazol-3-yl)-3-(7-((1-(2-(2,6-dioxopiperidin-3-yl)-1-oxoisoindolin-5-yl)pyrrolidin-3-yl)methyl)-2,7-diazaspirononan-2-yl)benzenesulfonamide], the DC50 is under 10 nM and the Dmax was over 75%.
